Reference: publication PMC8434134, “Biflavonoids from Selaginella doederleinii as Potential Antitumor Agents for Intervention of Non-Small Cell Lung Cancer” (Molecules, 2021)

Legend:
[1] = test system: H1299 cells; assay: MTT antiproliferative assay, H1299; format: cell-based, human; conditions: mean of n = 3
Text: (§1) To evaluate the anti-NSCLC activity of compounds 1–5, we tested their inhibitory effect on the proliferation of two NSCLC cell lines (A549 and H1299) as well as human normal embryonic lung cell line MRC-5 by the MTT assay using Cis-platin (DDP) as a positive control. […] Among them, compounds 1–3 were further studied for their potential apoptosis-mediated death of A549 cells because of their promising antiproliferative activity against NSCLC cells.
(§2) Human lung carcinoma cell lines (A549), human lung adenocarinoma epithelial cell lines (H1299) and human normal embryonic lung cell lines (MRC-5) were purchased from the Chinese Academy of Sciences (Shanghai). H1299 and MRC-5 cells were maintained in RPMI1640 medium, and A549 cell lines were maintained in MEN medium. Both media were supplemented with 10% fetal bovine serum. All of the cell lines were grown at 37 °C in a 5% CO2 atmosphere. The cell lines mentioned above were checked for mycoplasma contamination, and no contamination was observed.
(§3) Cytotoxicity of test compounds was assessed by the MTT assay. A549, H1299 and MRC-5 cells at a final density (3000 cells/well) were placed in 96-well cell plates and treated with or without different concentrations of the test compounds for 24 h. At the end of the treatment, 3-(4,5-dimethyl-2-thiazolyl)-2,5-diphenyl-2-H-tetrazolium bromide (MTT, […], 5 mg/mL) was added into each well, and the cells were further incubated for 4 h. The resulting formazan crystals were dissolved in […] of DMSO and the absorbance was read spectrophotometrically at 570 nm using an enzyme-linked immunosorbent assay plate reader. Experiments were conducted in triplicate. Inhibition rate (%) = [(Acontrol − Atreated)/Acontrol] × 100%. IC50 value represents the half of maximal inhibitory concentration.

[2] = test system: MRC-5 cells; assay: MTT cytotoxicity assay, non-cancer MRC-5; format: cell-based; conditions: mean of n = 3, non-cancer cells
Text: as §1, §2, §3

[3] = test system: A549 cells; assay: MTT antiproliferative assay, A549; format: cell-based, human; conditions: mean of n = 3
Text: as §1, §2, §3

[4] = test system: A549 cells; assay: FITC-Annexin V/PI apoptosis assay by flow cytometry; format: cell-based, human; conditions: 3 μM, 24 h
Protocol: Subsequently, to further verify the apoptosis induction potential of compounds 1–3, quantification of Annexin V-FITC/PI double positive cells was performed using flow cytometry analysis. A549 cells were incubated with indicated compounds, and the percentages of apoptotic A549 cells were determined by FITC-Annexin V and PI staining and flow cytometry.
Cells were incubated in six-well plates (1 × 10^5/well) and treated with vehicle control (i.e., 1% DMSO in buffer) or compounds 1–3 at 3 μM for 24 h, respectively. The collected cells were harvested, washed with PBS, and then stained with FITC-Annexin-V and PI. Apoptosis was determined with flow cytometry.

[5] = test system: survivin; assay: Western blot, survivin expression in A549 cells; format: cell-based, human; conditions: 3 μM, 24 h, GAPDH as control
Protocol: (§4) The X-linked mammalian inhibitor of apoptosis protein (XIAP) and survivin, known as the inhibitor-of-apoptosis protein (IAP) members, play an important regulatory role in the caspase-dependent apoptosis. Therefore, the Western blot assay experiments were further performed to examine whether the inhibition of XIAP and survivin were involved in compounds 1–3 induced apoptosis.
(§5) A549 cells (1 × 10^5/well) were cultured in six-well plates overnight and treated in triplicate with vehicle DMSO (0.1%, v/v) alone, or with indicated compound at 3 μM for 24 h. The cells were harvested and lysed with cell lysis buffer containing protease and phosphatase inhibitor cocktails (Beyotime, Shanghai, China). The concentrations of protein were determined using a BCA protein assay kit (Beyotime, Shanghai, China) and equalized before loading. Samples were denatured and subjected to SDS-PAGE gels followed by transfer to PVDF membrane and probed with specific antibodies against cleaved caspase-3, caspase-3, survivin, XIAP, β-actin, and GAPDH (Abcam, Shanghai, China), and then incubated with the secondary antibodies diluted in TBST. Finally, the protein bands were detected with ECL Western Blotting Kit according to the manufacturer’s specifications. Eventually, films were obtained and the light density of the target bar was analyzed by Image J software.

[6] = test system: XIAP; assay: Western blot, XIAP expression in A549 cells; format: cell-based, human; conditions: 3 μM, 24 h, GAPDH as control
Protocol: as §4, §5

[7] = test system: A549 cells; assay: Cell cycle analysis, PI staining and flow cytometry; format: cell-based, human; conditions: 24 h
Protocol: In addition to apoptosis, the induction of cell cycle arrest is an important means to control the growth and development of cancer cells. To investigate whether 3 suppressed the cells’ growth by arresting the cell cycle, we performed the experiment where cell cycle distribution was analyzed with flow cytometry after staining the DNA with propidium iodide (PI).
A549 cells were treated with vehicle control (i.e., 1% DMSO in buffer) or compound 3 at indicated concentration for 24 h, respectively. The cells were harvested, washed, then fixed with 70% ethanol at −20 °C for 8 h, and incubated with PI/RNase staining buffer (BD Pharmingen) for 15 min at room temperature (25 °C). The DNA content in the different groups of cells was assessed with flow cytometry and analyzed by the software MODFIT.

[8] = test system: caspase-3; assay: Western blot, caspase-3 level in A549 cells; format: cell-based, human; conditions: 3 μM, 24 h, β-actin as control
Protocol: (§6) Furthermore, to elucidate the mechanism underlying the apoptosis-inducing activity of compounds 1–3, we examined their regulatory effect on the expression of caspase-3/cleaved-caspase-3, which are hallmarks of apoptosis.
as §5

[9] = test system: cleaved caspase-3; assay: Western blot, cleaved caspase-3 level in A549 cells; format: cell-based, human; conditions: 3 μM, 24 h, β-actin as control
Protocol: as §6, §5

[10] = Homo sapiens, NCI-H1299, 24 h treatment
[11] = Homo sapiens, MRC5, 24 h treatment
[12] = Homo sapiens, A549, 24 h treatment

SMILES	IC50 [1, 10]	IC50 [3, 12]	IC50 [2, 11]	apoptosis incidence in A549 cells [4]	level of survivin expression [5]	level of XIAP expression [6]	G0/G1-phase cells (gate C in Figure 9A) ([7]; 5 μM, control 60.8%)	cell cycle arrest, phase [7]	percentage of cells at the S phase ([7]; control 10.6%, concentration not in the sentence (5 μM by Figure 9))	relative level of caspase-3 [8]	relative level of cleaved caspase-3 [9]	IC50 ([1]; 24 h treatment)	IC50 ([2]; 24 h treatment)	IC50 ([3]; 24 h treatment)
O=c1cc(-c2ccc(Oc3c(-c4ccc(O)cc4)oc4cc(O)cc(O)c4c3=O)cc2)oc2cc(O)cc(O)c12 [Compound 5, delicaflavone]	8.4 µM	7.9 µM	36.8 µM											
N.N.[Cl][Pt][Cl] [DDP, Cis-platin, reference compound]										enhanced	enhanced	24.5 µM	49 µM	13.3 µM
O=C1C[C@@H](c2ccc(Oc3c(-c4ccc(O)cc4)oc4cc(O)cc(O)c4c3=O)cc2)Oc2cc(O)cc(O)c21 [Compound 1, (2″S)-2″,3″-dihydrodelicaflavone]	7.3 µM	3.1 µM	> 100 µM	41.3%										

The next lines start with results.

IC50 [1, 10]	IC50 [3, 12]	SMILES	IC50 [2, 11]	apoptosis incidence in A549 cells [4]	level of survivin expression [5]	level of XIAP expression [6]	G0/G1-phase cells (gate C in Figure 9A) ([7]; 5 μM, control 60.8%)	cell cycle arrest, phase [7]	percentage of cells at the S phase ([7]; control 10.6%, concentration not in the sentence (5 μM by Figure 9))	relative level of caspase-3 [8]	relative level of cleaved caspase-3 [9]	IC50 ([1]; 24 h treatment)	IC50 ([2]; 24 h treatment)	IC50 ([3]; 24 h treatment)
6.8 µM	3.1 µM	Cc1c(O)cc2c(c1O)C(=O)C[C@@H](c1ccc(Oc3c(-c4ccc(O)cc4)oc4cc(O)cc(O)c4c3=O)cc1)O2 [Compound 4, (2″S)-6″-methyl-2″,3″-dihydrodelicaflavone]	58.2 µM											
7.3 µM	2.8 µM	Cc1c(O)cc2oc(-c3ccc(Oc4c(-c5ccc(O)cc5)oc5cc(O)cc(O)c5c4=O)cc3)cc(=O)c2c1O [Compound 2, 6″-methyldelicaflavone]	> 100 µM	80.3%										
4 µM	2.3 µM	COc1cc(O)c2c(=O)c(Oc3ccc(-c4cc(=O)c5c(O)cc(O)cc5o4)cc3)c(-c3ccc(O)cc3)oc2c1 [Compound 3, 7-O-methyldelicaflavone]	> 100 µM	82.4%	suppressed	suppressed	45.3%	S phase	24.8%	upregulation	upregulation			
